Measurements from patent US20110136666A1, “CHEMICAL COMPOUNDS” (SYNGENTA CROP PROTECTION, INC., priority 2008, published 2011).

system: Solanum nigrum (SOLNI); experiment: Post-emergence biological efficacy, glasshouse pot test; format: in vivo; conditions: 312 h, 1000 g/ha, after 13 days, 100=total damage, 0=no damage, read-out: Percentage damage caused to weed species SOLNI
Procedure: (§1) Seeds of Alopecurus myosuroides (ALOMY), Setaria faberi (SETFA), Echinochloa crus-galli (ECHCG), Solanum nigrum (SOLNI), Amaranthus retroflexus (AMARE) and Ipomea hederaceae (IPOHE) were sown in standard soil in pots. After cultivation for 8 days under controlled conditions in a glasshouse (at 24/16° C., day/night; 14 hours light; 65% humidity), the plants were sprayed with an aqueous spray solution derived from the formulation of the technical active ingredient in acetone/water (50:50) solution containing 0.5% Tween 20 (polyoxyethylene sorbitan monolaurate, CAS RN 9005-64-5) to give a final dose of 250 or 1000 g/ha of test compound.
(§2) The test plants were then grown on under controlled conditions in a glasshouse (at 24/16° C., day/night; 14 hours light; 65% humidity) and watered twice daily. After 13 days the test was evaluated (100=total damage to plant; 0=no damage to plant).

Row | SMILES | pest or weed control at 1000 g/ha
1 | COC(=O)c1nc(-c2cccs2)nc(N)c1Cl [Compound 2-1, 4-Amino-5-chloro-6-methoxycarbonyl-2-thiophen-2-ylpyrimidine] | 0%
2 | COC(=O)c1nc(-c2ccc(Cl)s2)nc(N)c1Cl [Compound 2-2, 4-Amino-5-chloro-2-(5-chlorothiophen-2-yl)-6-methoxycarbonyl pyrimidine] | 90%
3 | COC(=O)c1nc(-c2ccc(C#N)s2)nc(N)c1Cl [Compound 2-3, 4-Amino-5-chloro-2-(5-cyanothiophen-2-yl)-6-methoxycarbonyl pyrimidine] | 0%

system: Amaranthus retroflexus (AMARE); experiment: as above; format: in vivo; conditions: 312 h, 1000 g/ha, after 13 days, 100=total damage, 0=no damage, read-out: Percentage damage caused to weed species AMARE
Procedure: as §1, §2

Row | SMILES | pest or weed control at 1000 g/ha
4 | COC(=O)c1nc(-c2cccs2)nc(N)c1Cl [Compound 2-1, 4-Amino-5-chloro-6-methoxycarbonyl-2-thiophen-2-ylpyrimidine] | 0%
5 | COC(=O)c1nc(-c2ccc(Cl)s2)nc(N)c1Cl [Compound 2-2, 4-Amino-5-chloro-2-(5-chlorothiophen-2-yl)-6-methoxycarbonyl pyrimidine] | 100%
6 | COC(=O)c1nc(-c2ccc(C#N)s2)nc(N)c1Cl [Compound 2-3, 4-Amino-5-chloro-2-(5-cyanothiophen-2-yl)-6-methoxycarbonyl pyrimidine] | 0%

system: Alopecurus myosuroides (ALOMY); experiment: as above; format: in vivo; conditions: 312 h, 1000 g/ha, after 13 days, 100=total damage, 0=no damage, read-out: Percentage damage caused to weed species ALOMY
Procedure: as §1, §2

Row | SMILES | pest or weed control at 1000 g/ha
7 | COC(=O)c1nc(-c2cccs2)nc(N)c1Cl [Compound 2-1, 4-Amino-5-chloro-6-methoxycarbonyl-2-thiophen-2-ylpyrimidine] | 0%
8 | COC(=O)c1nc(-c2ccc(Cl)s2)nc(N)c1Cl [Compound 2-2, 4-Amino-5-chloro-2-(5-chlorothiophen-2-yl)-6-methoxycarbonyl pyrimidine] | 0%
9 | COC(=O)c1nc(-c2ccc(C#N)s2)nc(N)c1Cl [Compound 2-3, 4-Amino-5-chloro-2-(5-cyanothiophen-2-yl)-6-methoxycarbonyl pyrimidine] | 0%

system: Echinochloa crus-galli (ECHCG); experiment: as above; format: in vivo; conditions: 312 h, 1000 g/ha, after 13 days, 100=total damage, 0=no damage, read-out: Percentage damage caused to weed species ECHCG
Procedure: as §1, §2

Row | SMILES | pest or weed control at 1000 g/ha
10 | COC(=O)c1nc(-c2cccs2)nc(N)c1Cl [Compound 2-1, 4-Amino-5-chloro-6-methoxycarbonyl-2-thiophen-2-ylpyrimidine] | 0%
11 | COC(=O)c1nc(-c2ccc(Cl)s2)nc(N)c1Cl [Compound 2-2, 4-Amino-5-chloro-2-(5-chlorothiophen-2-yl)-6-methoxycarbonyl pyrimidine] | 0%
12 | COC(=O)c1nc(-c2ccc(C#N)s2)nc(N)c1Cl [Compound 2-3, 4-Amino-5-chloro-2-(5-cyanothiophen-2-yl)-6-methoxycarbonyl pyrimidine] | 0%

system: Setaria faberi (SETFA); experiment: as above; format: in vivo; conditions: 312 h, 1000 g/ha, after 13 days, 100=total damage, 0=no damage, read-out: Percentage damage caused to weed species SETFA
Procedure: as §1, §2

Row | SMILES | pest or weed control at 1000 g/ha
13 | COC(=O)c1nc(-c2cccs2)nc(N)c1Cl [Compound 2-1, 4-Amino-5-chloro-6-methoxycarbonyl-2-thiophen-2-ylpyrimidine] | 0%
14 | COC(=O)c1nc(-c2ccc(Cl)s2)nc(N)c1Cl [Compound 2-2, 4-Amino-5-chloro-2-(5-chlorothiophen-2-yl)-6-methoxycarbonyl pyrimidine] | 0%
15 | COC(=O)c1nc(-c2ccc(C#N)s2)nc(N)c1Cl [Compound 2-3, 4-Amino-5-chloro-2-(5-cyanothiophen-2-yl)-6-methoxycarbonyl pyrimidine] | 0%

system: Ipomea hederaceae (IPOHE); experiment: as above; format: in vivo; conditions: Ipomoea hederacea, 312 h, 1000 g/ha, after 13 days, 100=total damage, 0=no damage, read-out: Percentage damage caused to weed species IPONE
Procedure: as §1, §2

Row | SMILES | pest or weed control at 1000 g/ha
16 | COC(=O)c1nc(-c2cccs2)nc(N)c1Cl [Compound 2-1, 4-Amino-5-chloro-6-methoxycarbonyl-2-thiophen-2-ylpyrimidine] | 50%
17 | COC(=O)c1nc(-c2ccc(Cl)s2)nc(N)c1Cl [Compound 2-2, 4-Amino-5-chloro-2-(5-chlorothiophen-2-yl)-6-methoxycarbonyl pyrimidine] | 70%
18 | COC(=O)c1nc(-c2ccc(C#N)s2)nc(N)c1Cl [Compound 2-3, 4-Amino-5-chloro-2-(5-cyanothiophen-2-yl)-6-methoxycarbonyl pyrimidine] | 0%

system: Solanum nigrum (SOLNI); experiment: Pre-emergence biological efficacy, glasshouse pot test; format: in vivo; conditions: 312 h, 1000 g/ha, after 13 days, 100=total damage, 0=no damage, read-out: Percentage damage caused to weed species SOLNI
Procedure: as §1, with “one day” for “8 days”
(§3) The test plants were then grown under controlled conditions in the glasshouse (at 24/16° C., day/night; 14 hours light; 65% humidity) and watered twice daily. After 13 days the test was evaluated (100=total damage to plant; 0=no damage to plant).

Row | SMILES | pest or weed control at 1000 g/ha
19 | COC(=O)c1nc(-c2cccs2)nc(N)c1Cl [Compound 2-1, 4-Amino-5-chloro-6-methoxycarbonyl-2-thiophen-2-ylpyrimidine] | 0%
20 | COC(=O)c1nc(-c2ccc(Cl)s2)nc(N)c1Cl [Compound 2-2, 4-Amino-5-chloro-2-(5-chlorothiophen-2-yl)-6-methoxycarbonyl pyrimidine] | 0%
21 | COC(=O)c1nc(-c2ccc(C#N)s2)nc(N)c1Cl [Compound 2-3, 4-Amino-5-chloro-2-(5-cyanothiophen-2-yl)-6-methoxycarbonyl pyrimidine] | 0%

system: Amaranthus retroflexus (AMARE); experiment: as above; format: in vivo; conditions: 312 h, 1000 g/ha, after 13 days, 100=total damage, 0=no damage, read-out: Percentage damage caused to weed species AMARE
Procedure: as §1, with “one day” for “8 days”
as §3

Row | SMILES | pest or weed control at 1000 g/ha
22 | COC(=O)c1nc(-c2cccs2)nc(N)c1Cl [Compound 2-1, 4-Amino-5-chloro-6-methoxycarbonyl-2-thiophen-2-ylpyrimidine] | 0%
23 | COC(=O)c1nc(-c2ccc(Cl)s2)nc(N)c1Cl [Compound 2-2, 4-Amino-5-chloro-2-(5-chlorothiophen-2-yl)-6-methoxycarbonyl pyrimidine] | 80%
24 | COC(=O)c1nc(-c2ccc(C#N)s2)nc(N)c1Cl [Compound 2-3, 4-Amino-5-chloro-2-(5-cyanothiophen-2-yl)-6-methoxycarbonyl pyrimidine] | 0%

system: Alopecurus myosuroides (ALOMY); experiment: as above; format: in vivo; conditions: 312 h, 1000 g/ha, after 13 days, 100=total damage, 0=no damage, read-out: Percentage damage caused to weed species ALOMY
Procedure: as §1, with “one day” for “8 days”
as §3

Row | SMILES | pest or weed control at 1000 g/ha
25 | COC(=O)c1nc(-c2cccs2)nc(N)c1Cl [Compound 2-1, 4-Amino-5-chloro-6-methoxycarbonyl-2-thiophen-2-ylpyrimidine] | 0%
26 | COC(=O)c1nc(-c2ccc(Cl)s2)nc(N)c1Cl [Compound 2-2, 4-Amino-5-chloro-2-(5-chlorothiophen-2-yl)-6-methoxycarbonyl pyrimidine] | 0%
27 | COC(=O)c1nc(-c2ccc(C#N)s2)nc(N)c1Cl [Compound 2-3, 4-Amino-5-chloro-2-(5-cyanothiophen-2-yl)-6-methoxycarbonyl pyrimidine] | 0%

system: Echinochloa crus-galli (ECHCG); experiment: as above; format: in vivo; conditions: 312 h, 1000 g/ha, after 13 days, 100=total damage, 0=no damage, read-out: Percentage damage caused to weed species ECHCG
Procedure: as §1, with “one day” for “8 days”
as §3

Row | SMILES | pest or weed control at 1000 g/ha
28 | COC(=O)c1nc(-c2cccs2)nc(N)c1Cl [Compound 2-1, 4-Amino-5-chloro-6-methoxycarbonyl-2-thiophen-2-ylpyrimidine] | 0%
29 | COC(=O)c1nc(-c2ccc(Cl)s2)nc(N)c1Cl [Compound 2-2, 4-Amino-5-chloro-2-(5-chlorothiophen-2-yl)-6-methoxycarbonyl pyrimidine] | 0%
30 | COC(=O)c1nc(-c2ccc(C#N)s2)nc(N)c1Cl [Compound 2-3, 4-Amino-5-chloro-2-(5-cyanothiophen-2-yl)-6-methoxycarbonyl pyrimidine] | 0%

system: Setaria faberi (SETFA); experiment: as above; format: in vivo; conditions: 312 h, 1000 g/ha, after 13 days, 100=total damage, 0=no damage, read-out: Percentage damage caused to weed species SETFA
Procedure: as §1, with “one day” for “8 days”
as §3

Row | SMILES | pest or weed control at 1000 g/ha
31 | COC(=O)c1nc(-c2cccs2)nc(N)c1Cl [Compound 2-1, 4-Amino-5-chloro-6-methoxycarbonyl-2-thiophen-2-ylpyrimidine] | 0%
32 | COC(=O)c1nc(-c2ccc(Cl)s2)nc(N)c1Cl [Compound 2-2, 4-Amino-5-chloro-2-(5-chlorothiophen-2-yl)-6-methoxycarbonyl pyrimidine] | 0%
33 | COC(=O)c1nc(-c2ccc(C#N)s2)nc(N)c1Cl [Compound 2-3, 4-Amino-5-chloro-2-(5-cyanothiophen-2-yl)-6-methoxycarbonyl pyrimidine] | 0%

system: Ipomea hederaceae (IPOHE); experiment: as above; format: in vivo; conditions: Ipomoea hederacea, 312 h, 1000 g/ha, after 13 days, 100=total damage, 0=no damage, read-out: Percentage damage caused to weed species IPOHE
Procedure: as §1, with “one day” for “8 days”
as §3

Row | SMILES | pest or weed control at 1000 g/ha
34 | COC(=O)c1nc(-c2cccs2)nc(N)c1Cl [Compound 2-1, 4-Amino-5-chloro-6-methoxycarbonyl-2-thiophen-2-ylpyrimidine] | 0%
35 | COC(=O)c1nc(-c2ccc(Cl)s2)nc(N)c1Cl [Compound 2-2, 4-Amino-5-chloro-2-(5-chlorothiophen-2-yl)-6-methoxycarbonyl pyrimidine] | 20%
36 | COC(=O)c1nc(-c2ccc(C#N)s2)nc(N)c1Cl [Compound 2-3, 4-Amino-5-chloro-2-(5-cyanothiophen-2-yl)-6-methoxycarbonyl pyrimidine] | 0%
